Measured values as given in publication doi:10.1101/2023.05.15.540828, “Optimization of 3-Cyano-7-cyclopropylamino-pyrazolo[1,5-a]pyrimidines Toward the Development of an In Vivo Chemical Probe for CSNK2A” (bioRxiv, 2023).

How the values were obtained:
CSNK2A1 = target: T1, CSNK2A1 (Homo sapiens, UniProt P68400); test: NanoBRET in-cell target engagement, Tracer K10 displacement, HEK293; assay type: cell-based
T1 construct: CSNK2A-NLuc fusion

CSNK2A2 = target: T2, CSNK2A2 (Homo sapiens, UniProt P19784); test: as above; assay type: cell-based
T2 construct: CSNK2A-NLuc fusion
T2 sequence (P19784 whole entry, the tested form may be a part): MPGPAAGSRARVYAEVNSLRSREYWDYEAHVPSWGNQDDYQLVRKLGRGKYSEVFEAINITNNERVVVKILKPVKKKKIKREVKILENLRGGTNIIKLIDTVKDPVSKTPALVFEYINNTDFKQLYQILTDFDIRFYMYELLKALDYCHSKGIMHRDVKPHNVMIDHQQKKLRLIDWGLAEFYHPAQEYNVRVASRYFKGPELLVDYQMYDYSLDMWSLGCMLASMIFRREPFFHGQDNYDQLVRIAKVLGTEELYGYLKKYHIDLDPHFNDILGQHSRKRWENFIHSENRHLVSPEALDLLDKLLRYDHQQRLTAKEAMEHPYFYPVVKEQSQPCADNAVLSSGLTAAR

T1 sequence (P68400 whole entry, the tested form may be a part): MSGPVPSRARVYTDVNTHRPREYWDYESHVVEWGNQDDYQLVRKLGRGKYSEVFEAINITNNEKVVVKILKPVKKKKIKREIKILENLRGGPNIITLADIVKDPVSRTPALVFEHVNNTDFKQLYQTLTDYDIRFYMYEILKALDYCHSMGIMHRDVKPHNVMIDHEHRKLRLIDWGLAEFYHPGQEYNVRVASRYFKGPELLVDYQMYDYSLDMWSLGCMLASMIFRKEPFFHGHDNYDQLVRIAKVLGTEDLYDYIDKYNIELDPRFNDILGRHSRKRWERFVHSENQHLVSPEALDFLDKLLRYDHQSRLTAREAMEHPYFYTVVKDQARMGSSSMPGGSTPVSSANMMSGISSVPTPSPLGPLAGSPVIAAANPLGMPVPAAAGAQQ

SMILES | [drawing 10] / CSNK2A1 pIC50^a (CSNK2A1) | [drawing 10] / CSNK2A2 pIC50^a (CSNK2A2)
CN[C@H]1CCCN(c2ccc(Nc3cc(NC4CC4)n4ncc(C#N)c4n3)cc2NC(C)=O)C1 [2c, (S)-N-(5-((3-cyano-7-(cyclopropylamino)pyrazolo[1,5-a]pyrimidin-5-yl)amino)-2-(3-(methylamino)piperidin-1-yl)phenyl)acetamide] | 8.3 pIC50 | 8.4 pIC50
CN[C@@H]1CCN(c2ccc(Nc3cc(NC4CC4)n4ncc(C#N)c4n3)cc2NC(C)=O)C1 [2d, (R)-N-(5-((3-cyano-7-(cyclopropylamino)pyrazolo[1,5-a]pyrimidin-5-yl)amino)-2-(3-(methylamino)pyrrolidin-1-yl)phenyl)acetamide] | 8.6 pIC50 | 8.8 pIC50
CN[C@H]1CCN(c2ccc(Nc3cc(NC4CC4)n4ncc(C#N)c4n3)cc2NC(C)=O)C1 [2e, (S)-N-(5-((3-cyano-7-(cyclopropylamino)pyrazolo[1,5-a]pyrimidin-5-yl)amino)-2-(3-(methylamino)pyrrolidin-1-yl)phenyl)acetamide] | 8.3 pIC50 | 8.4 pIC50
CC(=O)Nc1cc(Nc2cc(NC3CC3)n3ncc(C#N)c3n2)ccc1N(C)C[C@@H]1CCCN1 [2f, (S)-N-(5-((3-cyano-7-(cyclopropylamino)pyrazolo[1,5-a]pyrimidin-5-yl)amino)-2-(methyl(pyrrolidin-2-ylmethyl)amino)phenyl)acetamide] | 8.4 pIC50 | 8.5 pIC50
CC(=O)Nc1cc(Nc2cc(NC3CC3)n3ncc(C#N)c3n2)ccc1N[C@@H]1CCCOC1 [2m, (R)-N-(5-((3-cyano-7-(cyclopropylamino)pyrazolo[1,5-a]pyrimidin-5-yl)amino)-2-((tetrahydro-2H-pyran-3-yl)amino)phenyl)acetamide] | 8.0 pIC50 | 8.1 pIC50
